In patent publication US12091425B2 (AMGEN INC., priority 2016, dated 2024) one finds IC50 data, which are given here for 15 compounds.

The term IC50 denotes the concentration that inhibits the measured activity by half.

This assay deals with T1, Mcl-1/Bim interaction, recombinant human Mcl-1 (171-327) (Homo sapiens, UniProt Q07820).
T1 construct: made in house
Nature of the assay: Cell free Mcl-1: Bim Affinity Assay (Mcl-1 HTRF). Format: binding. The settings on record: TR-FRET, 0.1 nM Mcl-1 (171-327), 0.05 nM biotin-Bim (51-76). In short, it runs like this:
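Displacement of biotinylated Bim 51-76 peptide is followed by TR-FRET. Incubation runs overnight. Duplicate points are fitted with a four-parameter sigmoid to yield IC50.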

T1 sequence (Q07820 171-327): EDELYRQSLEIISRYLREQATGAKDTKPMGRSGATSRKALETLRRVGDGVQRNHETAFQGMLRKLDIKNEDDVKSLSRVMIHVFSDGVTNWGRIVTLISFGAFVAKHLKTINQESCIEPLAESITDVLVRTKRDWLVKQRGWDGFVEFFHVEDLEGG

In the case of `CC[C@@H]1CC/C=C/[C@H](OCCS(C)(=O)=O)[C@@H]2CC[C@H]2CN2C[C@@]3(CCCc4cc(Cl)ccc43)COc3ccc(cc32)C(=O)NS1(=O)=O` [Example 981, (1S,3′R,6′R,7′S,8′E,12′R)-6-chloro-12′-ethyl-7′-(2-(methylsulfonyl)ethoxy)-3,4-dihydro-2H,15′H-spiro[naphthalene-1,22′-[20]oxa[13]thia[1,14]diazatetracyclo[14.7.2.0^3,6.0^19,24]pentacosa [8,16,18,24]tetraen]-15′-one 13′,13′-dioxide], the IC50 is 0.943 nM.
The same measure for `CC[C@@H]1CC/C=C/[C@H](OCC#N)[C@@H]2CC[C@H]2CN2C[C@@]3(CCCc4cc(Cl)ccc43)COc3ccc(cc32)C(=O)NS1(=O)=O` [Example 982, (((1S,3′R,6′R,7′S,8′E,12′R)-6-chloro-12′-ethyl-13′,13′-dioxido-15′-oxo-3,4-dihydro-2H-spiro[naphthalene-1,22′-[20]oxa[13]thia[1,14]diazatetracyclo[14.7.2.0^3,6.0^19,24]pentacosa [8,16,18,24]tetraen]-7′-yl)oxy)acetonitrile]: 3.14 nM.
In the case of `CC[C@@H]1CC/C=C/[C@H](OCC2CCOCC2)[C@@H]2CC[C@H]2CN2C[C@@]3(CCCc4cc(Cl)ccc43)COc3ccc(cc32)C(=O)NS1(=O)=O` [Example 983, (1S,3′R,6′R,7′S,8′E,12′R)-6-chloro-12′-ethyl-7′-(tetrahydro-2H-pyran-4-ylmethoxy)-3,4-dihydro-2H,15′H-spiro[naphthalene-1,22′-[20]oxa[13]thia[1,14]diazatetracyclo[14.7.2.0^3,6.0^19,24]pentacosa [8,16,18,24]tetraen]-15′-one 13′,13′-dioxide], the concentration for half-maximal inhibition (IC50) is 1.23 nM.
The same measure for `CC[C@@H]1CC/C=C/[C@H](OCCN2CCOCC2)[C@@H]2CC[C@H]2CN2C[C@@]3(CCCc4cc(Cl)ccc43)COc3ccc(cc32)C(=O)NS1(=O)=O` [Example 984, (1S,3′R,6′R,7′S,8′E,12′R)-6-chloro-12′-ethyl-7′-(2-(4-morpholinyl)ethoxy)-3,4-dihydro-2H,15′H-spiro[naphthalene-1,22′-[20]oxa[13]thia[1,14]diazatetracyclo[14.7.2.0^3,6.0^19,24]pentacosa [8,16,18,24]tetraen]-15′-one 13′,13′-dioxide]: 1.09 nM; for `CC[C@@H]1CC/C=C/[C@H](OCC(=O)OC)[C@@H]2CC[C@H]2CN2C[C@@]3(CCCc4cc(Cl)ccc43)COc3ccc(cc32)C(=O)NS1(=O)=O` [Example 991, methyl (((1S,3′R,6′R,7′S,8′E,12′R)-6-chloro-12′-ethyl-13′,13′-dioxido-15′-oxo-3,4-dihydro-2H-spiro[naphthalene-1,22′-[20]oxa[13]thia[1,14]diazatetracyclo[14.7.2.0^3,6.0^19,24]pentacosa [8,16,18,24]tetraen]-7′-yl)oxy)acetate]: 0.644 nM.
The same measure for `CC[C@@H]1CCCC[C@H](OCC(=O)O)[C@@H]2CC[C@H]2CN2C[C@@]3(CCCc4cc(Cl)ccc43)COc3ccc(cc32)C(=O)NS1(=O)=O` [Example 994, (((1S,3′R,6′R,7′S,12′R)-6-chloro-12′-ethyl-13′,13′-dioxido-15′-oxo-3,4-dihydro-2H-spiro[naphthalene-1,22′-[20]oxa[13]thia[1,14]diazatetracyclo[14.7.2.0^3,6.0^19,24]pentacosa [16,18,24]trien]-7′-yl)oxy)acetic Acid]: 0.221 nM; for `CC[C@@H]1CC/C=C/[C@H](OCC(=O)N2CCC(F)(F)CC2)[C@@H]2CC[C@H]2CN2C[C@@]3(CCCc4cc(Cl)ccc43)COc3ccc(cc32)C(=O)NS1(=O)=O` [Example 998, (1S,3′R,6′R,7′S,8′E,12′R)-6-chloro-7′-(2-(4,4-difluoro-1-piperidinyl)-2-oxoethoxy)-12′-ethyl-3,4-dihydro-2H,15′H-spiro[naphthalene-1,22′-[20]oxa[13]thia[1,14]diazatetracyclo[14.7.2.0^3,6.0^19,24]pentacosa [8,16,18,24]tetraen]-15′-one 13′,13′-dioxide]: 2.14 nM; for `CC[C@@H]1CC/C=C/[C@H](OCC(=O)N2CCS(=O)(=O)CC2)[C@@H]2CC[C@H]2CN2C[C@@]3(CCCc4cc(Cl)ccc43)COc3ccc(cc32)C(=O)NS1(=O)=O` [Example 999, (1S,3′R,6′R,7′S,8′E,12′R)-6-chloro-7′-(2-(1,1-dioxido-4-thiomorpholinyl)-2-oxoethoxy)-12′-ethyl-3,4-dihydro-2H,15′H-spiro[naphthalene-1,22′-[20]oxa[13]thia[1,14]diazatetracyclo[14.7.2.0^3,6.0^19,24]pentacosa [8,16,18,24]tetraen]-15′-one 13′,13′-dioxide]: 0.373 nM.
With `CC[C@@H]1CC/C=C/[C@H](OCC(=O)Nc2ccncc2)[C@@H]2CC[C@H]2CN2C[C@@]3(CCCc4cc(Cl)ccc43)COc3ccc(cc32)C(=O)NS1(=O)=O` [Example 1000, 2-(((1S,3′R,6′R,7′S,8′E,12′R)-6-chloro-12′-ethyl-13′,13′-dioxido-15′-oxo-3,4-dihydro-2H-spiro[naphthalene-1,22′-[20]oxa[13]thia[1,14]diazatetracyclo[14.7.2.0^3,6.0^19,24]pentacosa [8,16,18,24]tetraen]-7′-yl)oxy)-N-4-pyridinylacetamide], the IC50 came to 3.14 nM.
The same measure for `CC[C@@H]1CC/C=C/[C@H](NC(=O)C(C)C)[C@@H]2CC[C@H]2CN2C[C@@]3(CCCc4cc(Cl)ccc43)COc3ccc(cc32)C(=O)NS1(=O)=O` [Example 1077, N-((1S,3′R,6′R,7′S,8′E,12′R)-6-chloro-12′-ethyl-13′,13′-dioxido-15′-oxo-3,4-dihydro-2H-spiro[naphthalene-1,22′-[20]oxa[13]thia[1,14]diazatetracyclo[14.7.2.0^3,6.0^19,24]pentacosa [8,16,18,24]tetraen]-7′-yl)-2-methylpropanamide]: 3.45 nM.
The same measure for `CC[C@@H]1CCCC[C@@H](NC(C)=O)[C@@H]2CC[C@H]2CN2C[C@@]3(CCCc4cc(Cl)ccc43)COc3ccc(cc32)C(=O)NS1(=O)=O` [Example 1080, N-((1S,3′R,6′R,7′R,12′R)-6-chloro-12′-ethyl-13′,13′-dioxido-15′-oxo-3,4-dihydro-2H-spiro[naphthalene-1,22′-[20]oxa[13]thia[1,14]diazatetracyclo[14.7.2.0^3,6.0^19,24]pentacosa [16,18,24]trien]-7′-yl)acetamide]: 1.14 nM; for `CC[C@@H]1CC/C=C/[C@@H](NC(=O)C(C)C)[C@@H]2CC[C@H]2CN2C[C@@]3(CCCc4cc(Cl)ccc43)COc3ccc(cc32)C(=O)NS1(=O)=O` [Example 1081]: 0.947 nM; for `CC[C@@H]1CC/C=C\[C@@H](NC(=O)C(C)C)[C@@H]2CC[C@H]2CN2C[C@@]3(CCCc4cc(Cl)ccc43)COc3ccc(cc32)C(=O)NS1(=O)=O` [Example 1082]: 18 nM.
The same measure for `CC[C@@H]1CCCC[C@@H](NC(=O)C(C)C)[C@@H]2CC[C@H]2CN2C[C@@]3(CCCc4cc(Cl)ccc43)COc3ccc(cc32)C(=O)NS1(=O)=O` [Example 1083]: 2.19 nM; for `O=C1NS(=O)(=O)CCCCCC[C@@H]2CC[C@H]2CN2C[C@@]3(CCCc4cc(Cl)ccc43)COc3ccc1cc32` [Example 1084, (1S,3′R,6′R)-6-chloro-3,4-dihydro-2H,15′H-spiro[naphthalene-1,22′-[20]oxa[13]thia[1,14]diazatetracyclo[14.7.2.0^3,6.0^19,24]pentacosa[16,18,24]trien]-15′-one 13′,13′-dioxide]: 13.6 nM.
